For the experiment, the target named is recombinant HCV NS5B (HCV RNA-dependent RNA polymerase) (Hepatitis C virus genotype 1b, UniProt P26663). Briefly: biochemical. The note with it: HCV polymerase activity, list of compounds of Example 27; read-out: IC50 (polymerase activity).

Some results are limits rather than exact numbers.

Chain of recombinant HCV NS5B (HCV RNA-dependent RNA polymerase) (P26663 2420-3010 limits assumed): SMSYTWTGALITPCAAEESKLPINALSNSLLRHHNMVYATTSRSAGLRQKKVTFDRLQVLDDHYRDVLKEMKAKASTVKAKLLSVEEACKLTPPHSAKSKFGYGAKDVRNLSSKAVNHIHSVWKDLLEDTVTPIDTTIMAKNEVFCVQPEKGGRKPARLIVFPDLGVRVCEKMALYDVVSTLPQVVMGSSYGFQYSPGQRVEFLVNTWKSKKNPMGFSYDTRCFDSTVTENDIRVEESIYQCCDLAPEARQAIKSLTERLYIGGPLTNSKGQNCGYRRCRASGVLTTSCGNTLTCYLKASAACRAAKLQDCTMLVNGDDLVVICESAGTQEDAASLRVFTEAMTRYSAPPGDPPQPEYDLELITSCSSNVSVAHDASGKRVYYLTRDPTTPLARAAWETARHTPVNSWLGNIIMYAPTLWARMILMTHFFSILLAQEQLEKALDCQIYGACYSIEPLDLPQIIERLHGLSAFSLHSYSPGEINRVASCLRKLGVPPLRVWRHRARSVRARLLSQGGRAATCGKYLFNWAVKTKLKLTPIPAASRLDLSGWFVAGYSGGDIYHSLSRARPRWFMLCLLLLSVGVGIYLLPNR

For orientation: IC50 means the concentration needed to halve the response being measured. Consider `CC(C)(C)OC(=O)N1CCC(N(C(=O)c2ccc(Cl)cc2Cl)c2cc(-c3ccccc3)sc2C(=O)O)C1` (centres unmarked) [Compound 499, 3-[(2-CARBOXY-5-PHENYL-THIOPHEN-3- YL)-(2,4-DICHLORO-BENZOYL)-AMINO]- PYRROLIDINE-1-CARBOXYLIC ACID #TERT!-BUTYL ESTER], for which the IC50 is under 5 µM.
The value for `CC(C)N(c1cc(-c2ccccc2)sc1C(=O)O)C(=O)[C@]1(C)CC[C@@H](C)CC1` [Compound 500, 3-[(1,4-DIMETHYL- CYCLOHEXANECARBONYL)-ISOPROPYL- AMINO]-5-PHENYL-THIOPHENE-2- CARBOXYLIC ACID] was under 5 µM.
Regarding `CCc1ccc(-c2cc(N(C(=O)c3ccc(C)cc3O)C(C)C)c(C(=O)O)s2)cc1` [Compound 501, 5-(4-ETHYL-PHENYL)-3-[(2-HYDROXY-4- METHYL-BENZOYL)-ISOPROPYL-AMINO]- THIOPHENE-2-CARBOXYLIC ACID], the IC50 was under 5 µM.
The value for `Cc1cccc(-c2cc(N(C(=O)c3ccc(C)cc3O)C(C)C)c(C(=O)O)s2)c1` [Compound 502, 3-[(2-HYDROXY-4-METHYL-BENZOYL)- ISOPROPYL-AMINO]-5-#M!-TOLYL- THIOPHENE-2-CARBOXYLIC ACID] was under 5 µM.
In the case of `O=C(O)c1sc(-c2ccccc2)cc1N(C(=O)c1ccc(Cl)cc1Cl)C1CCNC1` (centres unmarked) [Compound 503, 3-[(2,4-DICHLORO-BENZOYL)- PYRROLIDIN-3-YL-AMINO]-5-PHENYL- THIOPHENE-2-CARBOXYLIC ACID], the IC50 fell in the range of 5 to 20 µM.
The value for `CC(C)N(C(=O)c1ccc(Cl)cc1Cl)c1cc(C2=CCN(C(=O)OCc3ccccc3)CC2)sc1C(=O)O` [Compound 504, 4-(5-CARBOXY-4-[(2,4-DICHLORO- BENZOYL)-ISOPROPYL-AMINO]- THIOPHEN-2-YL)-3,6-DIHYDRO-2#H!- PYRIDINE-1-CARBOXYLIC ACID BENZYL ESTER] was under 5 µM.
For `Cc1ccc(C(=O)N(c2cc(-c3ccccc3)sc2C(=O)O)C(C)C)c(/C=N/O)c1` [Compound 505, 3-{[2-(HYDROXYIMINO-METHYL)-4- METHYL-BENZOYL]-ISOPROPYL-AMINO)-5- PHENYL-THIOPHENE-2-CARBOXYLIC ACID] the value was 5 to 20 µM.
On to `N=C(N)N1CCC(N(C(=O)c2ccc(Cl)cc2Cl)c2cc(-c3ccccc3)sc2C(=O)O)CC1` [Compound 506, 3-[(1-CARBAMIMIDOYL-PIPERIDIN-4-YL)- (2,4-DICHLORO-BENZOYL)-AMINO]-5- PHENYL-THIOPHENE-2-CARBOXYLIC ACID], for which the IC50 is under 5 µM.
The value for `CC(C)(C)OC(=O)N1CCCC(N(C(=O)c2ccc(Cl)cc2Cl)c2cc(-c3ccccc3)sc2C(=O)O)CC1` (centres unmarked) [Compound 507, 4-[(2-CARBOXY-5-PHENYL-THIOPHEN-3- YL)-(2,4-DICHLORO-BENZOYL)-AMINO]- AZEPANE-1-CARBOXYLIC ACID TERT!- BUTYL ESTER] was under 5 µM.
On to `O=C(O)c1sc(-c2ccccc2)cc1N(CC1CCN(C(=O)OCc2ccccc2)CC1)C(=O)c1ccc(Cl)cc1Cl` [Compound 508, 4-{[(2-CARBOXY-5-PHENYL-THIOPHEN-3- YL)-(2,4-DICHLORO-BENZOYL)-AMINO]- METHYL}-PIPERIDINE-1-CARBOXYLIC ACID BENZYL ESTER], for which the half-inhibitory concentration (IC50) was under 5 µM.
For `CC(C)(C)OC(=O)N1CCCC(N(C(=O)c2ccc(Cl)cc2Cl)c2cc(-c3ccccc3)sc2C(=O)O)C1` (centres unmarked) [Compound 511, 3-[(2-CARBOXY-5-PHENYL-THIOPHEN-3- YL)-(2,4-DICHLORO-BENZOYL)-AMINO]- PIPERIDINE-1-CARBOXYLIC ACID #TERT!-BUTYL ESTER] the value was under 5 µM; for `O=C(NC1CCC(N(C(=O)c2ccc(Cl)cc2Cl)c2cc(-c3ccccc3)sc2C(=O)O)CC1)OCc1ccccc1` (centres unmarked) [Compound 512, 3-[(4-BENZYLOXYCARBONYLAMINO- CYCLOHEXYL)-(2,4-DICHLORO- BENZOYL)-AMINO]-5-PHENYL- THIOPHENE-2-CARBOXYLIC ACID], under 5 µM.
The value for `CC1CCC(C(=O)N(c2cc(-c3ccccc3)sc2C(=O)O)C(C)C)C(=O)C1` (centres unmarked) [Compound 513, 3-[ISOPROPYL-(4-METHYL-2-OXO- CYCLOHEXANECARBONYL)-AMINO]-5- PHENYL-THIOPHENE-2-CARBOXYLIC ACID] was under 5 µM; that for `O=C(O)c1sc(-c2ccccc2)cc1N(C(=O)c1ccc(Cl)cc1Cl)C1CCCNC1` (centres unmarked) [Compound 514, 3-[(2,4-DICHLORO-BENZOYL)-PIPERIDIN- 3-YL-AMINO]-5-PHENYL-THIOPHENE-2- CARBOXYLIC ACID; COMPOUND WITH GENERIC INORGANIC NEUTRAL COMPONENT] was under 5 µM.
The value for `O=C(NC1CCC(N(C(=O)c2ccc(Cl)cc2Cl)c2cc(-c3ccccc3)sc2C(=O)O)CC1)OCc1ccccc1` (centres unmarked) [Compound 515, 3-[(4-BENZYLOXYCARBONYLAMINO- CYCLOHEXYL)-(2,4-DICHLORO- BENZOYL)-AMINO]-5-PHENYL- THIOPHENE-2-CARBOXYLIC ACID] was under 5 µM; that for `CC(COCc1ccccc1)N(C(=O)c1ccc(Cl)cc1Cl)c1cc(-c2ccccc2)sc1C(=O)O` (centres unmarked) [Compound 516, 3-[(2-BENZYLOXY-1-METHYL-ETHYL)- (2,4-DICHLORO-BENZOYL)-AMINO]-5- PHENYL-THIOPHENE-2-CARBOXYLIC ACID] was under 5 µM; that for `CC1CCC(C(=O)N(c2cc(-c3ccccc3)sc2C(=O)O)C2COC(C)(C)OC2)CC1` (centres unmarked) [Compound 517, 3-[(2,2-DIMETHYL-[1,3]DIOXAN-5-YL)-(4- METHYL-CYCLOHEXANECARBONYL)- AMINO]-5-PHENYL-THIOPHENE-2- CARBOXYLIC ACID] was under 5 µM.
For the compound `O=C(O)c1sc(-c2ccccc2)cc1N(C(=O)c1ccc(Cl)cc1Cl)C(CO)CO` [Compound 518, 3-[(2,4-DICHLORO-BENZOYL)-(2- HYDROXY-1-HYDROXYMETHYL-ETHYL)- AMINO]-5-PHENYL-THIOPHENE-2- CARBOXYLIC ACID], the IC50 was under 5 µM.
With `O=C(O)c1sc(-c2ccccc2)cc1N(CC1CCNCC1)C(=O)c1ccc(Cl)cc1Cl` [Compound 519, 3-[(2,4-DICHLORO-BENZOYL)-PIPERIDIN- 4-YLMETHYL-AMINO]-5-PHENYL- THIOPHENE-2-CARBOXYLIC ACID], the IC50 was under 5 µM.
The value for `O=C(O)c1sc(-c2ccccc2)cc1N(CC1CCNCC1)C(=O)c1ccccc1Cl` [Compound 520, 3-[(2-CHLORO-BENZOYL)-PIPERIDIN-4- YLMETHYL-AMINO]-5-PHENYL- THIOPHENE-2-CARBOXYLIC ACID] was under 5 µM; that for `CC(C)N(C(=O)c1cc2c(Cl)cc(Cl)cc2[nH]1)c1cc(-c2ccccc2)sc1C(=O)O` [Compound 521, 3-[(4,6-DICHLORO-1#H!-INDOLE-2- CARBONYL)-ISOPROPYL-AMINO]-5- PHENYL-THIOPHENE-2-CARBOXYLIC ACID] was under 5 µM; that for `CC(C1CCN(C(=O)OCc2ccccc2)CC1)N(C(=O)c1ccc(Cl)cc1Cl)c1cc(-c2ccccc2)sc1C(=O)O` (centres unmarked) [Compound 523, 4-{1-[(2-CARBOXY-5-PHENYL-THIOPHEN- 3-YL)-(2,4-DICHLORO-BENZOYL)-AMINO]- ETHYL}-PIPERIDINE-1-CARBOXYLIC ACID BENZYL ESTER] was 5 to 20 µM.
The value for `CC1CCC(C(=O)N(c2cc(C3=CCN(C(=O)OCc4ccccc4)CC3)sc2C(=O)O)C(C)C)CC1` (centres unmarked) [Compound 524, 4-{5-CARBOXY-4-[ISOPROPYL-(4- METHYL-CYCLOHEXANECARBONYL)- AMINO]-THIOPHEN-2-YL}-3,6-DIHYDRO- 2#H!-PYRIDINE-1-CARBOXYLIC ACID BENZYL ESTER] was under 5 µM; that for `CC1CCC(C(=O)N(c2ccncc2)c2cc(-c3ccccc3)sc2C(=O)O)CC1` (centres unmarked) [Compound 525, 3-[(4-METHYL- CYCLOHEXANECARBONYL)-PYRIDIN-4- YL-AMINO]-5-PHENYL-THIOPHENE-2- CARBOXYLIC ACID] was under 5 µM.
For `CC(C)N(C(=O)c1ccc(Cl)cc1Cl)c1cc(C2CCNCC2)sc1C(=O)O` [Compound 526, 3-[(2,4-DICHLORO-BENZOYL)- ISOPROPYL-AMINO]-5-PIPERIDIN-4-YL- THIOPHENE-2-CARBOXYLIC ACID; COMPOUND WITH TRIFLUORO-ACETIC ACID] the value was over 20 µM; for `CCCC1CCC(C(=O)N(c2cc(-c3ccccc3)sc2C(=O)O)C(C)C)CC1` (centres unmarked) [Compound 527, 3-[ISOPROPYL-(4-PROPYL- CYCLOHEXANECARBONYL)-AMINO]-5- PHENYL-THIOPHENE-2-CARBOXYLIC ACID], under 5 µM.
`NC1CCC(N(C(=O)c2ccc(Cl)cc2Cl)c2cc(-c3ccccc3)sc2C(=O)O)CC1` (centres unmarked) [Compound 528, 4-[(2-CARBOXY-5-PHENYL-THIOPHEN-3- YL(-(2,4-DICHLORO-BENZOYL)-AMINO]- CYCLOHEXYL-AMMONIUM; TRIFLUORO- ACETATE]: the IC50 is under 5 µM.
As to `CC(C1CCNCC1)N(C(=O)c1ccc(Cl)cc1Cl)c1cc(-c2ccccc2)sc1C(=O)O` (centres unmarked) [Compound 529, 3-[(2,4-DICHLORO-BENZOYL)-(1- PIPERIDIN-4-YL-ETHYL)-AMINO]-5- PHENYL-THIOPHENE-2- CARBOXYLIC ACID; COMPOUND WITH TRIFLUORO-ACETIC ACID], the IC50 is under 5 µM.
The value for `CC(C)N(C(=O)C1CC=CCC1)c1cc(-c2ccccc2)sc1C(=O)O` (centres unmarked) [Compound 530, 3-[(CYCLOHEX-3-ENECARBONYL)- ISOPROPYL-AMINO]-5-PHENYL- THIOPHENE-2-CARBOXYLIC ACID] was 5 to 20 µM; that for `CCC1CCC(C(=O)N(c2cc(-c3ccccc3)sc2C(=O)O)C(C)C)CC1` (centres unmarked) [Compound 531, 3-[(4-ETHYL-CYCLOHEXANECARBONYL)- ISOPROPYL-AMINO]-5-PHENYL- THIOPHENE-2-CARBOXYLIC ACID] was under 5 µM; that for `CC(C)N(C(=O)C1CCC(Cl)CC1)c1cc(-c2ccccc2)sc1C(=O)O` (centres unmarked) [Compound 532, 3-[(4-CHLORO- CYCLOHEXANECARBONYL)-ISOPROPYL- AMINO]-5-PHENYL-THIOPHENE-2- CARBOXYLIC ACID] was under 5 µM.
The value for `CC1CN(C(=O)OCc2ccccc2)CCC1N(C(=O)c1ccc(Cl)cc1Cl)c1cc(-c2ccccc2)sc1C(=O)O` (centres unmarked) [Compound 533, 4-[(2-CARBOXY-5-PHENYL-THIOPHEN-3- YL)-(2,4-DICHLORO-BENZOYL)-AMINO]-3- METHYL- PIPERIDINE-1-CARBOXYLIC ACID BENZYL ESTER] was under 5 µM.

Values taken from US6881741B2 (ViroChem Pharma Inc., priority 2001, dated 2005).
